# Reference: patent publication US20230372433A1, “NANOPARTICLE FOR ANTI-CANCER PEPTIDES AND USES THEREOF” (KING'S COLLEGE LONDON, priority 2020, published 2023)
# Where two headings read alike, the source gives them in different places. [ ]: non-standard residue; d: D form.
# How the values were obtained:
# [1] = system: HMLER-shEcad (human breast cancer stem cell); experiment: MTT cytotoxicity assay, HMLER-shEcad; assay type: cell-based
# [2] = system: HMLER-shEcad cells; experiment: HMLER-shEcad viability with co-incubated necrostatin or z-VAD-FMK; assay type: cell-based, human
# [3] = system: U2OS (human bone osteosarcoma); experiment: MTT cytotoxicity assay, U2OS; assay type: cell-based; details: 72 hr
# [4] = system: HMLER-shEcad mammospheres; experiment: Tumoursphere formation and viability assay; assay type: cell-based, human
# [5] = system: MCF-10A (human breast epithelial cell); experiment: cells; details: read-out: IC50 MCF-10A
# [6] = system: HEK293T (human embryonic kidney cell); experiment: MTT cytotoxicity assay, HEK293T; assay type: cell-based; details: read-out: IC50 HEK293T
# [7] = system: HMLER (human breast cancer bulk cell); experiment: MTT cytotoxicity assay, HMLER; assay type: cell-based; details: read-out: IC50 HMLER
# [8] = system: human red blood cells
# Procedure: Peptides were serially diluted in PBS starting at a concentration of 100 μM. The final volume of peptide in each well was 50 μL. To each well, 50 μL of RBCs in PBS at 2×10^8 cells/mL was added. As a positive lysis control, 1% triton was used. The mixtures were incubated at 37° C. for 1 hour, after which they were centrifuged at 1000x g for 5 minutes. After centrifugation, 10 μL of supernatant was transferred to 90 μL of DI H2O in a fresh 96-well plate. The absorbance of released hemoglobin at 410 nm was recorded and the fractional hemolysis was calculated based on the 100% and 0% lysis controls.
# [9] = Tryptophan fluorescent binding assay, 3POPC/1POPG vesicles; details: 50 μM peptide, PBS pH 7.4
# Method in brief: (§1)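 Tryptophan fluorescence was measured with peptide fixed at 50 μM and POPC or 3POPC/1POPG LUVs (100 nm extruded) titrated 0–5000 μM in PBS pH 7.4, read after 60 min. Excitation was 280 nm and emission 300–450 nm. The value is the lipid concentration giving 50% peptide binding, expressed as lipid per peptide.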
# [10] = ANTS/DPX liposome leakage assay, POPC vesicles; assay type: biochemical; details: 0.5 mM vesicles
# Method in brief: (§2)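 0.5 mM extruded 100 nm LUVs loaded with 5 mM ANTS/12.5 mM DPX were incubated 3 h with peptide at 0–20 μM in PBS pH 7.4 or HCl-adjusted PBS pH 4.8. Fluorescence read at ex 350/em 510 nm; 10% Triton set maximum leakage; values expressed as lipid per peptide.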
# [11] = Tryptophan fluorescent binding assay, POPC vesicles; details: 50 μM peptide, PBS pH 7.4
# Method in brief: as §1
# [12] = ANTS/DPX liposome leakage assay, 3POPC/1POPG vesicles; assay type: biochemical; details: for Peptide Concentration-induced 50% ANTS/DPX leakage at pH 4.8 (L/P) 3POPC/1POPG Vesicle / Peptide Concentration-induced 50% ANTS/DPX leakage at pH 7.4 (L/P) 3POPC/1POPG Vesicle: 0.5 mM vesicles
# Method in brief: as §2
# [13] = 72 hr, MTT, read-out: IC50 HMLER-shEcad
compound,measurement,setting,value
"COc1cccc2c1C(=O)c1c(O)c3c(c(O)c1C2=O)C[C@@](O)(C(=O)CO)C[C@@H]3O[C@H]1C[C@H](N)[C@H](O)[C@H](C)O1 [Doxorubicin, reference compound]",IC50,"[1]; Homo sapiens, 72 hr, MTT, read-out: IC50 HMLER-shEcad",3 nM
same,IC50,"[1]; Homo sapiens, two-dimensional culture, read-out: IC50 against two-dimensional HMLER-shEcad",2.5 ± 0.3 nM
same,cell viability on co-incubation with necrostatin or z-VAD-FMK,[2],can be dramatically improved
same,IC50,"[3]; Homo sapiens, U2OS",15 nM
same,"fold decrease in activity, mammospheres versus two-dimensional HMLER-shEcad",[4],"1,700 fold"
same,IC50,"[5]; Homo sapiens, MCF-10A, 72 h",640 nM
same,IC50,"[6]; Homo sapiens, HEK-293T, 72 hr, MTT",0.11 nM
same,IC50,"[7]; Homo sapiens, 72 hr, MTT",2.5 nM
CC(C)C[C@H](NC(=O)CN)C(=O)N[C@@H](CC(C)C)C(=O)N[C@@H](CCC(=O)O)C(=O)N[C@@H](CC(C)C)C(=O)N[C@@H](CC(C)C)C(=O)N[C@@H](CCC(=O)O)C(=O)N[C@@H](CC(C)C)C(=O)N[C@@H](CC(C)C)C(=O)N[C@@H](CC(C)C)C(=O)N[C@@H](CCCCN)C(=O)N[C@@H](C)C(=O)N[C@@H](C)C(=O)NCC(=O)N[C@@H](Cc1c[nH]c2ccccc12)C(N)=O [EEK],cell viability on co-incubation with necrostatin or z-VAD-FMK,[2],cannot be improved
same,concentration below which minimal lysis is caused,[8],below 90 μM
same,Lipid Concentration-induced 50% Peptide Binding (L/P) 3POPC/1POPG Vesicle,[9],4.50 L/P
same,Peptide Concentration-induced 50% ANTS/DPX leakage at pH 4.8 (L/P) POPC Vesicle,[10],39 L/P
same,Peptide Concentration-induced 50% ANTS/DPX leakage at pH 7.4 (L/P) POPC Vesicle,[10],730 L/P
same,Lipid Concentration-induced 50% Peptide Binding (L/P) POPC Vesicle,[11],0.48 L/P
same,Peptide Concentration-induced 50% ANTS/DPX leakage at pH 4.8 (L/P) 3POPC/1POPG Vesicle,[12]; pH 4.8,386 L/P
same,Peptide Concentration-induced 50% ANTS/DPX leakage at pH 7.4 (L/P) 3POPC/1POPG Vesicle,[12],657 L/P
same,liposome leakage activity from anionic vesicle at pH 4.8,"[12]; compared with zwitterionic vesicle, pH 4.8",relatively higher liposome leakage activity
"CC[C@@H](C(=O)[C@@H](C)[C@@H](O)[C@H](C)[C@@H]1O[C@@H]([C@@H](CC)C(=O)O)CC[C@@H]1C)[C@H]1O[C@]2(C=C[C@@H](O)[C@]3(CC[C@@](C)([C@H]4CC[C@](O)(CC)[C@H](C)O4)O3)O2)[C@H](C)C[C@@H]1C [Salinomycin, reference compound]",IC50,"[1]; Homo sapiens, 72 h, read-out: IC50 HMLER-shEcad",920 ± 280 nM
same,IC50,"[1]; Homo sapiens, read-out: IC50 against two-dimensional HMLER-shEcad",370 ± 0.5 nM
same,"fold decrease in activity, mammospheres versus two-dimensional HMLER-shEcad",[4],63 fold
same,IC50,"[4]; Homo sapiens, read-out: IC50 in mammospheres",22000 ± 5000 nM
same,IC50,"[5]; Homo sapiens, MCF-10A, 72 h",9760 ± 2280 nM
same,IC50,"[6]; Homo sapiens, HEK-293T, 72 h",410 ± 100 nM
same,IC50,"[7]; Homo sapiens, 72 h",370 ± 80 nM
D-form peptide of the selected sequence EEK (GLLELLELLLKAAGW) (H-G[dL][dL][dE][dL][dL][dE][dL][dL][dL][dK][dA][dA]G[dW]-NH2) [D-form EEK],IC50,[1]; [13],290 ± 10 nM
same,cell viability on co-incubation with necrostatin or z-VAD-FMK,[2],cannot be improved
same,IC50,[3],4780 ± 20 nM
same,IC50,"[5]; 72 hr, MTT",1070 ± 100 nM
same,IC50,"[6]; 72 hr, MTT",2820 ± 70 nM
same,IC50,"[7]; 72 hr, MTT",290 ± 10 nM
GLLHLLKLLLKAAG [HKK],IC50,[1]; [13],2600 ± 420 nM
same,IC50,[3],12230 ± 110 nM
same,IC50,"[5]; 72 hr, MTT",2180 ± 390 nM
same,IC50,"[6]; 72 hr, MTT",9500 ± 990 nM
same,IC50,"[7]; 72 hr, MTT",3400 ± 710 nM
same,Lipid Concentration-induced 50% Peptide Binding (L/P) 3POPC/1POPG Vesicle,[9],0.14 L/P
same,Peptide Concentration-induced 50% ANTS/DPX leakage at pH 4.8 (L/P) POPC Vesicle,[10],106 L/P
same,Peptide Concentration-induced 50% ANTS/DPX leakage at pH 7.4 (L/P) POPC Vesicle,[10],657 L/P
same,Lipid Concentration-induced 50% Peptide Binding (L/P) POPC Vesicle,[11],0.18 L/P
same,Peptide Concentration-induced 50% ANTS/DPX leakage at pH 4.8 (L/P) 3POPC/1POPG Vesicle,[12]; pH 4.8,106 L/P
same,Peptide Concentration-induced 50% ANTS/DPX leakage at pH 7.4 (L/P) 3POPC/1POPG Vesicle,[12],90 L/P
GLLKLLELLLHAAG [KEH],IC50,[1]; [13],2350 ± 70 nM
same,IC50,[3],49200 ± 5300 nM
same,IC50,"[5]; 72 hr, MTT",20000 nM
same,IC50,"[6]; 72 hr, MTT",5650 ± 70 nM
same,IC50,"[7]; 72 hr, MTT",3300 ± 420 nM
same,Lipid Concentration-induced 50% Peptide Binding (L/P) 3POPC/1POPG Vesicle,[9],0.50 L/P
same,Peptide Concentration-induced 50% ANTS/DPX leakage at pH 4.8 (L/P) POPC Vesicle,[10],188 L/P
same,Peptide Concentration-induced 50% ANTS/DPX leakage at pH 7.4 (L/P) POPC Vesicle,[10],995 L/P
same,Lipid Concentration-induced 50% Peptide Binding (L/P) POPC Vesicle,[11],1.00 L/P
same,Peptide Concentration-induced 50% ANTS/DPX leakage at pH 4.8 (L/P) 3POPC/1POPG Vesicle,[12]; pH 4.8,68 L/P
same,Peptide Concentration-induced 50% ANTS/DPX leakage at pH 7.4 (L/P) 3POPC/1POPG Vesicle,[12],286 L/P
